Data from ChEMBL document CHEMBL3751706, “Synthesis, biological studies and molecular dynamics of new anticancer RGD-based peptide conjugates for targeted drug delivery” (Bioorg Med Chem, 2016).
Calls of active or inactive are those of the source. No cut-off for these calls is given here.

What was measured:
[1] = Chemical stability of the compound at pH 7.4 assessed as half life by LC-MS analysis; format: physicochemical; settings: buffer
[2] = Half life in mouse liver homogenates by LC-MS analysis; format: ADME, tissue-based; settings: liver homogenate
[3] = Chemical stability of the compound at pH 5.2 assessed as half life by LC-MS analysis; format: physicochemical; settings: buffer
HEK293 [4] = test: Cytotoxicity against HEK293 […] cells non-expressing alphavbeta3 integrin up to 50 uM after 24 hrs by XTT assay; format: cell-based; settings: human, hek293, 24 h
B16-F10 [5] = test: Cytotoxicity against mouse B16F10 cells overexpressing alphavbeta3 integrin up to 50 uM after 24 hrs by XTT assay; format: functional, cell-based
NCI-H1299 [6] = test: Cytotoxicity against human H1299 cells overexpressing alphavbeta3 integrin at up to 50 uM after 24 hrs by XTT assay; format: functional, cell-based
Liver [7] = test: Drug metabolism in mouse liver homogenates assessed as time duration for drug release at 37 degC by LC-MS analysis; format: ADME, tissue-based; settings: tissue homogenate
NCI-H1299 [8] = test: Cytotoxicity against human H1299 cells overexpressing alphavbeta3 integrin at >50 uM after 24 hrs by XTT assay; format: functional, cell-based
B16-F10 [9] = test: Cytotoxicity against mouse B16F10 cells overexpressing alphavbeta3 integrin at 50 to 100 uM after 24 hrs by XTT assay; format: functional, cell-based
Liver [10] = test: Drug metabolism in mouse liver homogenates assessed as half life for drug release at 37 degC by LC-MS analysis; format: ADME, tissue-based; settings: tissue homogenate
HEK293 [11] = test: Cytotoxicity against HEK293 […] cells non-expressing alphavbeta3 integrin after 24 hrs by XTT assay; format: cell-based; settings: human, hek293, 24 h

Row | SMILES | half-life [1] [min] | half-life [2] [min] | half-life [3] [min] | Activity (HEK293 [4]) | Activity (B16-F10 [5]) | Activity (NCI-H1299 [6]) | Drug metabolism (Liver [7]) | Activity (NCI-H1299 [8]) | Activity (B16-F10 [9]) | t1/2 (Liver [10]) [min] | Time (Liver [7]) [min] | Activity (HEK293 [11])
1 | O=C(O)CCCc1ccc(N(CCCl)CCCl)cc1 [CHLORAMBUCIL] | 200 | 60 | 200 | – | – | – | – | – | – | – | – | –
2 | CC[C@@]1(O)C(=O)OCc2c1cc1n(c2=O)Cc2cc3ccccc3nc2-1 [CAMPTOTHECIN] | < 5760 | 105 | < 5760 | Toxic | Active | Active | – | – | – | – | – | –
3 | N=C(N)NCCC[C@@H]1NC(=O)[C@H](CCCCNC(=O)CCCc2ccc(N(CCCl)CCCl)cc2)NC(=O)[C@@H](Cc2ccccc2)NC(=O)[C@H](CC(=O)O)NC(=O)CNC1=O | < 720 | – | < 720 | – | – | – | metabolite_notdetected | Active | Active | – | – | –
4 | N=C(N)NCCC[C@@H]1NC(=O)[C@H](COC(=O)CCCc2ccc(N(CCCl)CCCl)cc2)NC(=O)[C@@H](Cc2ccccc2)NC(=O)[C@H](CC(=O)O)NC(=O)CNC1=O | < 720 | – | < 720 | – | – | – | – | Active | Active | 5 | 45 | Toxic
5 | CC[C@@]1(OC(=O)NCCCC[C@@H]2NC(=O)[C@@H](Cc3ccccc3)NC(=O)[C@H](CC(=O)O)NC(=O)CNC(=O)[C@H](CCCNC(=N)N)NC2=O)C(=O)OCc2c1cc1n(c2=O)Cc2cc3ccccc3nc2-1 | > 5760 | – | > 5760 | – | – | – | – | – | – | 5 | 10 | –
